Results as given in patent publication US10966426B2, “Herbicidal compositions comprising phenylpyrimidines” (BASF SE, priority 2016, dated 2021).

Key:
Assay type in all cases: in vivo
[1] = test system: Poa annua; assay: greenhouse pre-emergence treatment, POAAN; settings: clomazone solo (CS 360 g/l), 20 DAT
Excerpt: (§1) The culture containers used were plastic pots containing loamy sand with approximately 3.0% of humus as substrate. The seeds of the test plants were sown separately for each species.
(§2) For the pre-emergence treatment, the active compounds, suspended or emulsified in water, were applied directly after sowing by means of finely distributing nozzles. The containers were irrigated gently to promote germination and growth and subsequently covered with transparent plastic hoods until the plants had rooted. This cover caused uniform germination of the test plants unless this was adversely affected by the active compounds.
(§3) Depending on the species, the plants were kept at 10-25° C. and 20-35° C., respectively.
(§4) The test period extended over 2 to 4 weeks. During this time, the plants were tended and their response to the individual treatments was evaluated.
(§5) Evaluation was carried out using a scale from 0 to 100. 100 means no emergence of the plants, or complete destruction of at least the above-ground parts, and 0 means no damage or normal course of growth. A good herbicidal activity is given at values of at least 70, and very good herbicidal activity is given at values of at least 85.
(§6) The respective stated components A and B, and if appropriate, C were formulated as a 10% by weight strength emulsion concentrate and, with addition of the amount of solvent system, introduced into the spray liquor used for applying the active compound. In the examples, the solvent used was water.
(§7) In the examples below, using the method of S. R. Colby (1967) “Calculating synergistic and antagonistic responses of herbicide combinations”, Weeds 15, p. 22ff., the value E, which is expected if the activity of the individual active compounds is only additive, was calculated. E=X+Y−(X·Y/100) where X=effect in percent using herbicide A at an application rate a; • Y=effect in percent using herbicide B at application rate b; • E=expected effect (in %) of herbicide A+herbicide B at application rates a+b.

[2] = test system: Alopecurus myosuroides; assay: greenhouse pre-emergence treatment, ALOMY; settings: clomazone solo (CS 360 g/l), 30 gai/ha, 20 DAT
Excerpt: as §1, §2, §3, §4, §5, §6, §7

[3] = test system: Avena fatua; assay: greenhouse pre-emergence treatment, AVEFA; settings: Avena fatua, 480 h, read-out: % activity
Outline: (§8)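 Pre-emergence spray of compounds, alone or as combinations formulated as 10% emulsion concentrate in water, directly after sowing in loamy sand (~3.0% humus); pots hooded until rooting, kept at 10-25° C or 20-35° C per species for 2 to 4 weeks. Damage scored 0-100 (100 = no emergence/complete destruction); Colby expected value E=X+Y−(X·Y/100).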

[4] = test system: Helianthus annuus; assay: greenhouse pre-emergence treatment, HELAN; settings: Helianthus annuus, 480 h, read-out: % activity
Outline: as §8

[5] = test system: Lolium multiflorum; assay: greenhouse pre-emergence treatment, LOLMU; settings: Lolium multiflorum, 480 h, read-out: % activity
Outline: as §8

[6] = test system: Polygonum convolvulus; assay: greenhouse pre-emergence treatment, POLCO; settings: Fallopia convolvulus, 480 h, read-out: % activity
Excerpt: as §1, §2, §3, §4, §5, §6, §7

[7] = test system: Setaria viridis; assay: greenhouse pre-emergence treatment, SETVI; settings: SETVI, 20 DAT
Outline: as §8

[8] = test system: Galium aparine; assay: greenhouse pre-emergence treatment, GALAP; settings: Galium aparine, 480 h, read-out: % activity
Outline: as §8

[9] = test system: Echinocloa crus-galli; assay: greenhouse pre-emergence treatment, ECHCG; settings: clomazone solo (CS 360 g/l), 120 gai/ha, 20 DAT
Excerpt: as §1, §2, §3, §4, §5, §6, §7

[10] = test system: Digitaria sanguinalis; assay: greenhouse pre-emergence treatment, DIGSA
Outline: as §8

[11] = test system: Bromus sterilis; assay: greenhouse pre-emergence treatment, BROST; settings: Bromus sterilis, 480 h, read-out: % activity
Outline: as §8

[12] = test system: Brachiaria decumbens; assay: greenhouse pre-emergence treatment, BRADC; settings: BRADC, 20 DAT; for % activity: clomazone solo (CS 360 g/l)
Outline: as §8

[13] = test system: Apera spica-venti; assay: greenhouse pre-emergence treatment, APESV; settings: clomazone solo (CS 360 g/l), 20 DAT
Excerpt: as §1, §2, §3, §4, §5, §6, §7

[14] = test system: Ambrosia elatior; assay: greenhouse pre-emergence treatment, AMBEL; settings: AMBEL, 20 DAT; for % activity: clomazone solo (CS 360 g/l)
Outline: as §8

CC1(C)CON(Cc2ccccc2Cl)C1=O [clomazone]
75%: pest or weed control at 120 g/ha [6]
20%: % activity ([13]; 15 gai/ha)
30%: % activity ([1]; 60 gai/ha) | % activity ([7]; clomazone solo (CS 360 g/l), 60 gai/ha) | pest or weed control at 120 g/ha ([10]; Digitaria sanguinalis, 480 h, DIGSA, 20 DAT, solo clomazone (CS 360 g/l) 120 gai/ha) | % activity ([10]; clomazone solo (CS 360 g/l), 120 gai/ha, 20 DAT, DIGSA) | pest or weed control at 120 g/ha [11] | pest or weed control at 120 g/ha ([12]; Urochloa decumbens, 480 h, solo clomazone (CS 360 g/l) 120 gai/ha) | % activity ([12]; 120 gai/ha)
60%: pest or weed control at 120 g/ha [5] | pest or weed control at 60 g/ha [6]
40%: pest or weed control at 60 g/ha [5]
80%: % activity ([1]; 120 gai/ha) | pest or weed control at 30 g/ha [8]
90%: % activity [9]
0%: % activity ([1]; 15 gai/ha) | % activity ([1]; 30 gai/ha) | % activity [2] | pest or weed control at 30 g/ha [3] | % activity ([7]; solo clomazone (CS 360 g/l) 30 gai/ha) | pest or weed control at 60 g/ha ([10]; Digitaria sanguinalis, 480 h, DIGSA, 20 DAT, solo clomazone (CS 360 g/l) 60 gai/ha) | pest or weed control at 15 g/ha ([10]; Digitaria sanguinalis, 480 h, read-out: % activity) | pest or weed control at 30 g/ha [11] | pest or weed control at 15 g/ha ([12]; Urochloa decumbens, 480 h, solo clomazone (CS 360 g/l) 15 gai/ha) | pest or weed control at 30 g/ha ([12]; Urochloa decumbens, 480 h, solo clomazone (CS 360 g/l) 30 gai/ha) | pest or weed control at 60 g/ha ([12]; Urochloa decumbens, 480 h, solo clomazone (CS 360 g/l) 60 gai/ha) | % activity ([12]; 30 gai/ha) | % activity ([12]; 60 gai/ha) | pest or weed control at 15 g/ha ([14]; Ambrosia artemisiifolia, 480 h, solo clomazone (CS 360 g/l) 15 gai/ha)
65%: % activity ([7]; clomazone solo (CS 360 g/l), 120 gai/ha) | % activity ([7]; clomazone solo (CS 360 g/l), 125 gai/ha) | % activity ([13]; 120 gai/ha)
10%: plant injury at 30 g/ha [4] | pest or weed control at 60 g/ha ([14]; Ambrosia artemisiifolia, 480 h, solo clomazone (CS 360 g/l) 60 gai/ha) | pest or weed control at 120 g/ha ([14]; Ambrosia artemisiifolia, 480 h, solo clomazone (CS 360 g/l) 120 gai/ha) | pest or weed control at 1250 g/ha ([14]; Ambrosia artemisiifolia, 480 h, solo clomazone (CS 360 g/l) 1250 gai/ha) | % activity ([14]; 60 gai/ha) | % activity ([14]; 120 gai/ha)
